Assay results from ChEMBL document CHEMBL1150206, “Verrucoside, a new cytotoxic pregnane glycoside from a gorgonian Eunicella verrucosa” (J Nat Prod, 1991).
In brackets after ≈: the same amount, converted by molar mass.

Columns and labels:
Type in all cases: functional, cell-based
P388 = test: Cytotoxicity against mouse P388 cells
A549 = test: Cytotoxicity against human A549 cells
HT-29 = test: Cytotoxicity against human HT-29 cells

In the case of `C=C[C@H]1CC[C@H]2[C@@H]3CC[C@@H]4[C@@H](O[C@@H]5O[C@@H](C)[C@@H](O)[C@@H](OC)[C@@H]5OC(C)=O)[C@@H](O)CC[C@]4(C)[C@H]3CC[C@]12C` [VERRUCOSIDE], the IC50 (P388) is reported as 5.9 µg/mL (≈ 11.3 µM), the IC50 (A549) is reported as 7.2 µg/mL (≈ 13.8 µM) and the IC50 (HT-29) is reported as 6.3 µg/mL (≈ 12.1 µM).
